pIC50: −log10 of the molar value.
Each compound was assayed on purified human Hsp90 (assay: Binding Assay: fluorescence polarization with BODIPY-labeled geldanamycin). Settings: 5 μM compound, BODIPY-GM 10 nM, Hsp90 30 nM.
In short: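 Compounds in 2% DMSO final compete with 10 nM BODIPY-GM for 30 nM purified human Hsp90, incubated overnight at room temperature in pH 7.3 HEPES buffer containing Na2MoO4 and DTT. Polarization (mP, ex/em 485/530) normalized to DMSO gives percent inhibition; autofluorescence-confounded data excluded.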

% Inhibition at 5 μM Compound Concentration	SMILES
16%	COc1ccc(OC)c(Sc2nc3c(N)ncn(CCc4ccccn4)c-3n2)c1 [Example 136, 8-(2,5-Dimethoxy-phenylsulfanyl)-3-(2-pyridin-2-yl-ethyl)-3H-purin-6-ylamine]
0%	COc1ccc(OC)c(Sc2nc3c(N)ncn(CCc4cccc(I)c4)c-3n2)c1 [Example 138, 8-(2,5-dimethoxy-phenylsulfanyl)-3-[2-(3-iodo-phenyl)-ethyl]-3H-purin-6-ylamine]
0%	COc1ccc(OC)c(Sc2nc3c(N)ncn(CCc4ccc(F)cc4Cl)c-3n2)c1 [Example 140, 3-[2-(2-chloro-4-fluoro-phenyl)-ethyl]-8-(2,5-dimethoxy-phenylsulfanyl)-3H-purin-6-ylamine]
0%	COc1ccc(OC)c(Sc2nc3c(N)ncn(CCc4ccccc4Br)c-3n2)c1 [Example 142, 3-[2-(2-bromo-phenyl)-ethyl]-8-(2,5-dimethoxy-phenylsulfanyl)-3H-purin-6-ylamine]
0%	COc1ccc(OC)c(Sc2nc3c(N)ncn(CCc4cc(F)cc(F)c4)c-3n2)c1 [Example 144, 3-[2-(3,5-difluoro-phenyl)-ethyl]-8-(2,5-dimethoxy-phenylsulfanyl)-3H-purin-6-ylamine]
0%	COc1ccc(OC)c(Sc2nc3c(N)ncn(CCc4cccc(F)c4F)c-3n2)c1 [Example 146, 3-[2-(2,3-difluoro-phenyl)-ethyl]-8-(2,5-dimethoxy-phenylsulfanyl)-3H-purin-6-ylamine]
35%	Nc1ncn(CCc2ccccc2F)c2nc(Sc3cc4c(cc3Br)OCO4)nc1-2 [Example 148, 8-(6-bromo-benzo[1,3]dioxol-5-ylsulfanyl)-3-[2-(2-fluoro-phenyl)-ethyl]-3H-purin-6-ylamine]
>10%	Nc1ncn(CCc2cccc(I)c2)c2nc(Sc3cc4c(cc3Br)OCO4)nc1-2 [Example 154, 8-(6-Bromo-benzo[1,3]dioxol-5-ylsulfanyl)-3-[2-(3-iodo-phenyl)-ethyl]-3H-purin-6-ylamine]
0%	CC(=O)c1ccc(CCn2cnc(N)c3nc(Sc4cc5c(cc4Br)OCO5)nc2-3)cc1 [Example 160, 1-(4-{2-[6-amino-8-(6-bromo-benzo[1,3]dioxol-5-ylsulfanyl)-purin-3-yl]-ethyl}-phenyl)-ethanone]
0%	Nc1ncn(CCc2cccc(F)c2F)c2nc(Sc3cc4c(cc3Br)OCO4)nc1-2 [Example 162, 8-(6-bromo-benzo[1,3]dioxol-5-ylsulfanyl)-3-[2-(2,3-difluoro-phenyl)-ethyl]-3H-purin-6-ylamine]

More lines, now with the values behind:

SMILES	% Inhibition at 5 μM Compound Concentration
Nc1ncn(CCc2ccccc2Br)c2nc(Sc3cc4c(cc3Br)OCO4)nc1-2 [Example 150, 8-(6-bromo-benzo[1,3]dioxol-5-ylsulfanyl)-3-[2-(2-bromo-phenyl)-ethyl]-3H-purin-6-ylamine]	0%
Nc1ncn(CCc2cccnc2)c2nc(Sc3cc4c(cc3Br)OCO4)nc1-2 [Example 152, 8-(6-bromo-benzo[1,3]dioxol-5-ylsulfanyl)-3-(2-pyridin-3-yl-ethyl)-3H-purin-6-ylamine]	20%
Cc1ccccc1CCn1cnc(N)c2nc(Sc3cc4c(cc3Br)OCO4)nc1-2 [Example 156, 8-(6-bromo-benzo[1,3]dioxol-5-ylsulfanyl)-3-(2-o-tolyl-ethyl)-3H-purin-6-ylamine]	16%
Nc1ncnc2c1nc(Sc1cc3c(cc1Br)OCO3)n2CCc1cccc2ccccc12 [Example 157, 8-(6-Bromo-benzo[1,3]dioxol-5-ylsulfanyl)-9-(2-naphthalen-1-yl-ethyl)-9H-purin-6-ylamine]	58%
Nc1ncn(CCc2cccc3ccccc23)c2nc(Sc3cc4c(cc3Br)OCO4)nc1-2 [Example 158, 8-(6-bromo-benzo[1,3]dioxol-5-ylsulfanyl)-3-(2-naphthalen-1-yl-ethyl)-3H-purin-6-ylamine]	0%
CC(=O)c1ccc(CCn2c(Sc3cc4c(cc3Br)OCO4)nc3c(N)ncnc32)cc1 [Example 159, 1-(4-{2-[6-Amino-8-(6-bromo-benzo[1,3]dioxol-5-ylsulfanyl)-purin-9-yl]-ethyl}-phenyl)-ethanone]	63%
Nc1ncnc2c1nc(Sc1cc3c(cc1Br)OCO3)n2CCc1cccc(F)c1F [Example 161, 8-(6-Bromo-benzo[1,3]dioxol-5-ylsulfanyl)-9-[2-(2,3-difluoro-phenyl)-ethyl]-9H-purin-6-ylamine]	17%

Same assay, conditions: BODIPY-GM 10 nM, Hsp90 30 nM

pIC50	SMILES
6.68	COc1ccc(OC)c(Sc2nc3c(N)ncnc3n2CCc2cccc(I)c2)c1 [Example 137, 8-(2,5-Dimethoxy-phenylsulfanyl)-9-[2-(3-iodo-phenyl)-ethyl]-9H-purin-6-ylamine]
7.05	COc1ccc(OC)c(Sc2nc3c(N)ncnc3n2CCc2ccc(F)cc2Cl)c1 [Example 139, 9-[2-(2-chloro-4-fluoro-phenyl)-ethyl]-8-(2,5-dimethoxy-phenylsulfanyl)-9H-purin-6-ylamine]
< 5.52	COc1ccc(OC)c(Sc2nc3c(N)ncnc3n2CCc2cc(F)cc(F)c2)c1 [Example 143, 9-[2-(3,5-Difluoro-phenyl)-ethyl]-8-(2,5-dimethoxy-phenylsulfanyl)-9H-purin-6-ylamine]
< 5.52	COc1ccc(OC)c(Sc2nc3c(N)ncnc3n2CCc2cccc(F)c2F)c1 [Example 145, 9-[2-(2,3-Difluoro-phenyl)-ethyl]-8-(2,5-dimethoxy-phenylsulfanyl)-9H-purin-6-ylamine]

Continued, compound first:

SMILES	pIC50
COc1ccc(OC)c(Sc2nc3c(N)ncnc3n2CCc2ccccn2)c1 [Example 135, 8-(2,5-Dimethoxy-phenylsulfanyl)-9-(2-pyridin-2-yl-ethyl)-9H-purin-6-ylamine]	5.89
COc1ccc(OC)c(Sc2nc3c(N)ncnc3n2CCc2ccccc2Br)c1 [Example 141, 9-[2-(2-Bromo-phenyl)-ethyl]-8-(2,5-dimethoxy-phenylsulfanyl)-9H-purin-6-ylamine]	7.40
Nc1ncnc2c1nc(Sc1cc3c(cc1Br)OCO3)n2CCc1ccccc1F [Example 147, 8-(6-Bromo-1,3-benzodioxol-5-ylsulfanyl)-9-[2-(2-fluoro-phenyl)-ethyl]-9H-purin-6-ylamine]	7.36
Nc1ncnc2c1nc(Sc1cc3c(cc1Br)OCO3)n2CCc1ccccc1Br [Example 149, 8-(6-Bromo-benzo[1,3]dioxol-5-ylsulfanyl)-9-[2-(2-bromo-phenyl)-ethyl]-9H-purin-6-ylamine]	7.15
Nc1ncnc2c1nc(Sc1cc3c(cc1Br)OCO3)n2CCc1cccnc1 [Example 151, 8-(6-Bromo-benzo[1,3]dioxol-5-ylsulfanyl)-9-(2-pyridin-3-yl-ethyl)-9H-purin-6-ylamine]	7.30
Nc1ncnc2c1nc(Sc1cc3c(cc1Br)OCO3)n2CCc1cccc(I)c1 [Example 153, 8-(6-Bromo-benzo[1,3]dioxol-5-ylsulfanyl)-9-[2-(3-iodo-phenyl)-ethyl]-9H-purin-6-ylamine]	6.22
Cc1ccccc1CCn1c(Sc2cc3c(cc2Br)OCO3)nc2c(N)ncnc21 [Example 155, 8-(6-Bromo-benzo[1,3]dioxol-5-ylsulfanyl)-9-(2-o-tolyl-ethyl)-9H-purin-6-ylamine]	7.02
Nc1ncnc2c1nc(Sc1cc3c(cc1Br)OCO3)n2CCc1cccc2ccccc12 [Example 157, 8-(6-Bromo-benzo[1,3]dioxol-5-ylsulfanyl)-9-(2-naphthalen-1-yl-ethyl)-9H-purin-6-ylamine]	6.30
CC(=O)c1ccc(CCn2c(Sc3cc4c(cc3Br)OCO4)nc3c(N)ncnc32)cc1 [Example 159, 1-(4-{2-[6-Amino-8-(6-bromo-benzo[1,3]dioxol-5-ylsulfanyl)-purin-9-yl]-ethyl}-phenyl)-ethanone]	6.10
Nc1ncnc2c1nc(Sc1cc3c(cc1Br)OCO3)n2CCc1cccc(F)c1F [Example 161, 8-(6-Bromo-benzo[1,3]dioxol-5-ylsulfanyl)-9-[2-(2,3-difluoro-phenyl)-ethyl]-9H-purin-6-ylamine]	6.49
